Columns and labels:
Format in all cases: in vivo
Conditions in all cases: intraperitoneal, at time of maximum effect, 50% of muscle relaxation activity vs vehicle only (100%)
male mice (ICR) [1] = assay: Muscle relaxation activity by residence time on a rotarod rotating at a fixed speed (15 r.p.m.)
Procedure: (§1) For testing, male mice (ICR) were purchased from ORIENT BIO INC. (Korea), divided into several groups with 6 mice in each group, and were adapted for 4-5 days. The mice having the weight ranging from 19 g to 26 g were employed for the test. The pharmacological effect of the test compounds on muscle relaxation was evaluated by Rotarod test, grip strength test, and muscular force (wire hang) test. All mice were adapted to the test environment at one hour before starting the tests. The pharmacological effects of all the test compounds were evaluated by administration through peritoneal cavity of the mice (10 ul/g, bw).
All the mice to be tested were preliminarily trained for 5 minutes on a rod rotating at the rate of 15 revolutions per a minute. The mice that could not remain on the rod without falling off therefrom for a minimum of 2 minutes were excluded from this testing. After the training, all the mice were allowed to rest for 45-60 minutes. Before the administration of the test compounds, the mice were subjected to a further training for one minute on the rod rotating under the same condition, where the mice falling off from the rod were excluded from this experimentation. […] In case a mouse stays on the rod until the test is finished, the time was recorded as 10 minutes. As test time for evaluation, a maximum of 10 minutes was applied. This experimentation was conducted according to the method described in the reference, ‘Yasuda et al. (2005) Antipyretic, analgesic and muscle relaxant activities of Pueraria isoflavonoids and their metabolites from Pueraria lobata Ohwi—a traditional Chinese drug. Biol. Pharm. Bull. 28: 1224-1228’.
(§2) The results of muscle relaxation activity of the phenyl alkyl carbamate derivative compounds measured in above Experimental Examples 1 to 3 are shown in following Table 3.

male mice (ICR) [2] = assay: Muscle relaxation activity by wire hang
Procedure: as §1
This experimentation was conducted using a metal wire of 30 cm in length, which was suspended between two pillars at a height of about 40 cm from the bottom covered with a soft pad. […] Each mouse was made to grip the wire using two forelimbs, and the elapse time before the mouse fell off from the wire to the pad on the bottom was recorded in seconds. Each mouse was given 5 opportunities for this test at an interval of 2 minutes period. The highest 3 records among the test opportunities were selected and the mean value was used as the test result. This experimentation was conducted according to the method described in the reference, ‘Jacqueline N. Crawley (1999) Behavioral phenotyping of transgenic and knockout mice: experimental design and evaluation of general health, sensory functions, motor abilities, and specific behavioral tests. Brain Res. 835: 18-26’.
as §2

male mice (ICR) [3] = assay: Muscle relaxation activity by grip strength (forelimbs)
Procedure: as §1
A grip strength test using the test animals' forelimbs was performed using an instrument equipped with triangle ring and designed so as to easily grip with the forelimbs of experimental animals, manufactured from Ugo Basile Inc. (Ugo Basile, Model 47106, Italy). The test was conducted before and after administration of the compounds to evaluate the effects thereof. […] The mouse was made to grip the rod with its forelimbs, and its tail was pulled, where the force at which the mouse detached from the rod was recorded. The instrument indicated the force in grams. All of the mice were given 3 opportunities for test, and the 3 highest values among the test opportunities were selected and the mean value was used as the test result. This experimentation was conducted according to the method described in the reference, ‘Nevins et al. (1993) Quantitative grip strength assessment as a means of evaluating muscle relaxation in mice. Psychopharmacol. 110: 92-96’.
as §2

Row | Structure (SMILES) | MR test (ED50) I = Fixed 15 r.p.m. Rotarod (male mice (ICR) [1]) | MR test (ED50) III = Wire hang (male mice (ICR) [2]) | MR test (ED50) II = Grip strength (male mice (ICR) [3])
1 | COCO[C@H](c1ccccc1I)[C@@H](C)OC(N)=O [Example 91, 1-(2-iodophenyl)-(R)-1-methoxymethoxypropyl-(R)-2-carbamate] | 30.1 mg/kg, bw | 24.4 mg/kg, bw | –
2 | CO[C@@H](c1ccccc1F)[C@H](C)OC(N)=O [Example 135, 1-(2-fluorophenyl)-(S)-1-methoxypropyl-(S)-2-carbamate] | 60.0 mg/kg, bw | 26.2 mg/kg, bw | 145.6 mg/kg, bw
3 | CO[C@@H](c1ccccc1I)[C@H](C)OC(N)=O [Example 143, 1-(2-iodophenyl)-(S)-1-methoxypropyl-(S)-2-carbamate] | 13.0 mg/kg, bw | 33.5 mg/kg, bw | 61.0 mg/kg, bw
4 | C[C@@H](OC(N)=O)[C@H](OC(N)=O)c1ccccc1Cl [Example 250, 1-(2-chlorophenyl)-(R)-2-carbamoyloxypropyl-(R)-1-carbamate] | – | – | 225.6 mg/kg, bw
5 | C[C@H](OC(N)=O)[C@@H](OC(N)=O)c1ccccc1Cl [Example 247, 1-(2-chlorophenyl)-(S)-1-carbamoyloxypropyl-(S)-2-carbamate] | – | – | 264.3 mg/kg, bw
6 | CO[C@@H](c1ccccc1Cl)[C@H](C)OC(N)=O [Example 124, 1-(2-chlorophenyl)-(S)-1-methoxypropyl-(S)-2-carbamate] | 35.9 mg/kg, bw | 34.8 mg/kg, bw | 66.4 mg/kg, bw
7 | COCO[C@@H](c1ccccc1Cl)[C@H](C)OC(N)=O [Example 1, 1-(2-chlorophenyl)-(S)-1-methoxymethoxypropyl-(S)-2-carbamate] | 55.0 mg/kg, bw | 37.0 mg/kg, bw | 115.2 mg/kg, bw

Source: patent publication US9029589B2, “Phenyl alkyl carbamate derivative compound and pharmaceutical composition containing the same” (Bio-Pharm Solutions Co., Ltd., priority 2011, dated 2015)
